Experimental data from article PMC7822874, “Chemoprotective antimalarials identified through quantitative high-throughput screening of Plasmodium blood and liver stage parasites” (Scientific Reports, 2021).
Where two headings read alike, the source gives them in different places.

Tests used:
in vitro = conditions: human
[1] = test system: Plasmodium falciparum Dd2 asexual blood stage parasites; experiment: microbe, parasite or virus in culture; design: species or system Plasmodium falciparum Dd2 in human erythrocytes; single determination (one 11-point concentration-response curve); conditions: Plasmodium falciparum, DD2, Erythrocyte, 72 h
[2] = HepG2-A16-CD81EGFP cells, uninfected

For `Cc1onc(-c2ccc(Cl)cc2)c1-c1ccnn1S(=O)(=O)c1ccc(Cl)cc1` [MLS001111121-01], the viability at 66 h (in vitro; [2]) was 100% and the AC50 ([1]; read-out: AC50) was 1880 nM.

For `C=CCOC(=O)C(C#N)c1nc2ccccc2nc1N1CCC(C(=O)OCC)CC1` (stereo not drawn) [MLS000036470-01], the viability at 48 h, 1 µM (in vitro; [2]) was 108%, the viability at 48 h, 3 µM (in vitro; [2]) was 100% and the AC50 ([1]; read-out: AC50) was 2370 nM.

In the case of `CCOC(=O)C1=C(C)N=c2sc(=Cc3ccc(OCC(=O)O)cc3)c(=O)n2C1c1cc(OC)c(OC)c(OC)c1` (stereo not drawn) [MLS001178475-01], the viability at 48 h (in vitro; [2]) is reported as 98%, the viability at 48 h, 1 µM (in vitro; [2]) is reported as 98% and the AC50 ([1]; read-out: AC50) is reported as 1880 nM.

Work on `COc1cccc(NC(=O)c2ccc(NCCCN3CCC(C)CC3)c([N+](=O)[O-])c2)c1` [MLS000689409-01] yielded a viability at 66 h (in vitro; [2]) of 108% and an AC50 ([1]; read-out: AC50) of 7500 nM.

In the case of `CCCCCSc1cc(O)c(C(CNC)C(C)C)cc1OC` (stereo not drawn) [MLS000704380-01], the viability at 48 h, 1 µM (in vitro) is reported as 106%, the viability at 48 h, 3 µM (in vitro) is reported as 101% and the AC50 ([1]; read-out: AC50) is reported as 168 nM.

Work on `COc1ccc(C(C(=O)Nc2ccc(C(C)C)cc2)N(Cc2ccco2)C(=O)CC2NC(=O)NC2=O)cc1` (stereo not drawn) [MLS000729756-01] yielded a viability at 48 h, 1 µM (in vitro; [2]) of 99%, a viability at 48 h, 3 µM (in vitro; [2]) of 94% and an AC50 ([1]; read-out: AC50) of 6680 nM.

For `CCOC(=O)c1c(-c2ccccc2)oc2ccc(O)c(CN3CCCC3)c12` [MLS000530619-01], the viability at 48 h (in vitro; [2]) was 98.8%, the viability at 48 h, 1 µM (in vitro; [2]) was 98.8% and the AC50 ([1]; read-out: AC50) was 596 nM.

`CCOC(=O)c1c(C)n(-c2ccc(F)cc2)c2ccc(O)cc12` [MLS001195957-01] gave a viability at 48 h, 1 µM (in vitro; [2]) of 109%, a viability at 48 h, 3 µM (in vitro; [2]) of 93% and an AC50 ([1]; read-out: AC50) of 6680 nM.

Work on `CCC(O)(CC)C(=O)NN(C(=O)Nc1csc2c1CCCC2)c1ccccc1` [MLS000554206-01] yielded a viability at 48 h, 1 µM (in vitro; [2]) of 98%, a viability at 48 h, 3 µM (in vitro; [2]) of 95% and an AC50 ([1]; read-out: AC50) of 2990 nM.

Work on `CCc1cccc(-n2c(=O)c3cccnc3n2CC(=O)NCc2ccc(C)cc2)c1` [NCGC00128446-01] yielded a viability (in vitro) of 83.3% and an AC50 [1] of 1680 nM.

In the case of `Cc1cccc(NC(=O)Cn2c(C)c(C#N)c3ccccc32)c1C` [MLS000030212-01], the viability at 48 h (in vitro; [2]) is reported as 99.9%, the viability at 48 h, 1 µM (in vitro; [2]) is reported as 99.9% and the AC50 ([1]; read-out: AC50) is reported as 5960 nM.

For `Cc1cccc(NC2=C(NC(=O)c3ccccc3)C(=O)c3ccccc3C2=O)c1` [MLS000392330-01], the viability at 48 h, 1 µM (in vitro; [2]) was 98%, the viability at 48 h, 3 µM (in vitro; [2]) was 95% and the AC50 ([1]; read-out: AC50) was 944 nM.

`Cc1ccc(Cl)cc1N1CCN(Cc2cc3c(cc2O)CCC3)CC1` [MLS000572148-01] gave a viability at 48 h, 1 µM (in vitro; [2]) of 103%, a viability at 48 h, 3 µM (in vitro; [2]) of 99% and an AC50 ([1]; read-out: AC50) of 188 nM.

In the case of `COC(=O)[C@H]1[C@H]2C[C@@H]3c4[nH]c5cc(OC)ccc5c4CCN3C[C@H]2C[C@@H](OC(=O)/C=C/c2cc(OC)c(OC)c(OC)c2)[C@@H]1OC` [MLS002153878-01], the viability at 48 h (in vitro) is reported as 106%, the viability at 48 h, 1 µM (in vitro) is reported as 106% and the AC50 ([1]; read-out: AC50) is reported as 5310 nM.

In the case of `CC(C)N1C(=S)N(Cc2ccco2)C(=O)C1CC(=O)Nc1ccccc1` (stereo not drawn) [MLS000729199-01], the viability at 48 h, 1 µM (in vitro; [2]) is reported as 99%, the viability at 48 h, 3 µM (in vitro; [2]) is reported as 109% and the AC50 ([1]; read-out: AC50) is reported as 1680 nM.

`O=C(Nc1c(C(=O)c2ccccc2)oc2ccccc12)c1cc(-c2ccccc2O)n[nH]1` [MLS000331861-01] showed a viability at 48 h, 1 µM (in vitro; [2]) of 100%, a viability at 48 h, 3 µM (in vitro; [2]) of 99% and an AC50 ([1]; read-out: AC50) of 2110 nM.

Compound `COc1cccc(N=C(S)N2CCN(S(=O)(=O)c3ccc(F)cc3)CC2)c1` [MLS001230093-01] has a viability at 48 h, 1 µM (in vitro; [2]) of 91%, a viability at 48 h, 3 µM (in vitro; [2]) of 89% and an AC50 ([1]; read-out: AC50) of 2660 nM.

For `COC(=O)[C@]1(C)CCC[C@@]2(C)C3CC[C@@]4(C)C[C@]3(CCC21)CC(=O)N4Cc1ccc(OC)cc1` (stereo partly drawn) [MLS002207414-01], the viability at 66 h (in vitro; [2]) was 96.7% and the AC50 ([1]; read-out: AC50) was 3760 nM.

`CC(C)Oc1ccc2c(c1)OC(c1ccccc1)(C(F)(F)F)NC2=O` (stereo not drawn) [MLS000392812-01] showed a viability at 48 h, 1 µM (in vitro; [2]) of 105%, a viability at 48 h, 3 µM (in vitro; [2]) of 98% and an AC50 ([1]; read-out: AC50) of 2660 nM.

With `CC1Cc2nc(SCC(=O)Nc3ccc4c(c3)OCO4)n(-c3ccc(F)cc3)c(=O)c2S1` (stereo not drawn) [MLS000685016-01] the viability at 48 h, 1 µM (in vitro; [2]) was 97%, the viability at 48 h, 3 µM (in vitro; [2]) was 93% and the AC50 ([1]; read-out: AC50) was 2990 nM.

Work on `CCCCN(C)CCNC(=O)c1cc2c(-c3cccc(OC)c3)nn(C)c2s1` [MLS001199565-01] yielded a viability at 48 h, 1 µM (in vitro; [2]) of 86%, a viability at 48 h, 3 µM (in vitro; [2]) of 85% and an AC50 ([1]; read-out: AC50) of 6680 nM.

Compound `COc1ccccc1-c1nnc2sc(COc3ccc(F)cc3)nn12` [MLS000042616-01] has a viability at 48 h (in vitro; [2]) of 102% and a viability at 48 h, 1 µM (in vitro; [2]) of 102%.

Compound `O=S(=O)(c1ccc(F)cc1)N1CCN(/C(S)=N/Cc2ccco2)CC1` [MLS000409296-01] has a viability at 66 h (in vitro; [2]) of 103%.

In the case of `CCOC(=O)N1CCc2c(sc3nc4n(c(=O)c23)N=C(c2ccc(OC)cc2)CS4)C1` [MLS000859689-01], the viability at 48 h, 1 µM (in vitro; [2]) is reported as 99% and the viability at 48 h, 3 µM (in vitro; [2]) is reported as 96%.

`CCSc1nnc(SCC(=O)c2c(N)n(C)c(=O)n(C)c2=O)s1` [MLS002169255-01] showed a viability at 48 h, 1 µM (in vitro; [2]) of 93% and a viability at 48 h, 3 µM (in vitro; [2]) of 88%.

`Cc1cccc(CSc2nn3c(=O)c(C)nnc3s2)c1` [MLS000724933-01] gave a viability at 48 h, 1 µM (in vitro; [2]) of 115% and a viability at 48 h, 3 µM (in vitro; [2]) of 100%.

Work on `Cc1ccc(C(=O)c2oc3ccccc3c2NC(=O)c2cc(-c3cc(C)ccc3O)[nH]n2)cc1` [MLS000331963-01] yielded a viability at 48 h, 1 µM (in vitro; [2]) of 103% and a viability at 48 h, 3 µM (in vitro; [2]) of 102%.

With `Cc1cccc(Cl)c1/N=C(\S)N1CCN(c2ccc([N+](=O)[O-])cn2)CC1` [MLS000833563-01] the viability at 48 h, 1 µM (in vitro; [2]) was 95% and the viability at 48 h, 3 µM (in vitro; [2]) was 93%.

For `COC(=O)c1cc2sc(Cl)cc2n1CC(=O)Nc1ccc(OC)c(OC)c1OC` [MLS000093488-01], the viability at 48 h (in vitro; [2]) was 101% and the viability at 48 h, 1 µM (in vitro; [2]) was 101%.

For `CCOc1cc(C2NCc3ccccc3-n3cccc32)ccc1O` (stereo not drawn) [MLS000047991-01], the viability at 48 h, 1 µM (in vitro) was 97% and the viability at 48 h, 3 µM (in vitro) was 95%.

`CCOc1cc(CN2CCCC(N3CCN(c4ccc(F)cc4)CC3)C2)ccc1OC` (stereo not drawn) [MLS001162894-01] showed a viability at 48 h, 1 µM (in vitro; [2]) of 114% and a viability at 48 h, 3 µM (in vitro; [2]) of 103%.

Work on `CCCN(CCC)C(=O)Cn1ccc(=N)c2ccccc21` [MLS000047676-01] yielded a viability at 48 h, 1 µM (in vitro; [2]) of 95% and a viability at 48 h, 3 µM (in vitro; [2]) of 87%.

`COc1cccc(N2C(N)=NC(N)=NC2(C)C)c1` [MLS000047853-01] showed a viability at 48 h (in vitro; [2]) of 103% and a viability at 48 h, 1 µM (in vitro; [2]) of 103%.

For `CN(C)S(=O)(=O)Oc1ccsc1C(=O)Nc1cccc(Cl)c1` [MLS000327935-01], the viability (in vitro) was 102%.

Compound `c1cc(Nc2ncnc3sc4c(c23)CCC4)ccn1` [MLS000681348-01] has a viability at 48 h (in vitro; [2]) of 103% and a viability at 48 h, 1 µM (in vitro; [2]) of 103%.

`CCOc1cc(CNC(C)C(O)c2ccccc2)cc(Cl)c1OCC` (stereo not drawn) [MLS000701716-01] gave a viability at 48 h, 1 µM (in vitro) of 90% and a viability at 48 h, 3 µM (in vitro) of 88%.

Compound `OC(CNCCNc1ncccc1C(F)(F)F)Cn1ccc2ccccc21` (stereo not drawn) [MLS000833573-01] has a viability at 48 h, 1 µM (in vitro; [2]) of 106% and a viability at 48 h, 3 µM (in vitro; [2]) of 96%.

`CN(C(=O)c1ccc(NC(=O)Cc2cccc(NC(=O)C3CCCN(C(=O)CCc4ccccc4)C3)c2)cc1)C1CCCC1` (stereo not drawn) [MLS002402746-01] showed a viability at 48 h (in vitro; [2]) of 104% and a viability at 48 h, 1 µM (in vitro; [2]) of 104%.

For `CC(C)(C)NC(=O)Cn1ccc(=N)c2ccccc21` [MLS000068809-01], the viability at 48 h, 1 µM (in vitro; [2]) was 99% and the viability at 48 h, 3 µM (in vitro; [2]) was 97%.

Compound `CCCCN(C)[S+](=O)([O-])c1ccc(C(=O)Nc2ccc(-c3nc4ccc(C)cc4s3)cc2)cc1` [NCGC00134689-01] has a viability at 66 h (in vitro; [2]) of 103%.

For `Cc1ccc(-n2nc3c(Cl)nnc(C)c3c2C)cc1` [MLS000698458-01], the viability at 48 h, 1 µM (in vitro; [2]) was 105% and the viability at 48 h, 3 µM (in vitro; [2]) was 104%.

For `COC(CSc1nc(N)c2c3c(sc2n1)CN(C)CC3)OC` [MLS001215130-01], the viability at 66 h (in vitro; [2]) was 97.5%.

`CCOC(=O)Cn1c2c(c(=N)c3c1CCC3)CCCC2` [MLS000702567-01] showed a viability at 66 h (in vitro; [2]) of 106%.

`CCCC(=O)Nc1sc2c(c1C(=O)Nc1ccccn1)CCCC2` [MLS000765104-01] gave a viability at 66 h (in vitro; [2]) of 101%.
